Assays:
[1] = test system: rabbit aorta precontracted with noradrenaline; test: relaxation of rabbit aorta precontracted with noradrenaline
[2] = test system: endothelial cells of the microcirculatory system; test: endothelial cell migration, Boyden chambers; type: cell-based; conditions: compared with other NO donors
Source text: The pharmacological activity of the compounds of the invention has been evaluated by their relaxation induction effect in vascular preparations (rabbit aorta rings) precontracted with noradrenaline (Amerini et al., J. Cardiovasc. Pharmacol., 28: 82-88, […]). The endothelio-protective and pro-angiogenetic effects of the compounds have also been evaluated in a study on the proliferation and migration of endothelial cells of the microcirculatory system (M. Ziche et al., J. Clin. Invest. 94: 2036-2044, 1994).
The endothelio-protective and pro-angiogenetic effect of the compounds was also evaluated by measuring the growth promotion and migration effect on endothelial cells of the microcirculatory system compared with other NO donors. Cell migration was evaluated using Boyden chambers, and proliferation as the total number of cells after 48 hours of exposure to the substances under study (M. Ziche et al., J. Clin. Invest. 94: 2036-2044, 1994).

## NCCCNCCCCN(CCCN)/[N+]([O-])=N/O [SpermineNONOate, spermineNONOate]
[1]
  vascular relaxation, result in words: much less powerful than piperazineNONOate complexes
[2]
  effect on endothelial cell migration, result in words: little active and does not give the maximum effect

Reference: US6897218B2, “Nitric oxide donors based on metallic centers” (Consiglio Nazionale Delle Ricerche, priority 2001, dated 2005)
